Measured values reported in patent US10030006B2, “Coumarin based Hsp90 inhibitors with urea and ether substituents” (University of Kansas, priority 2013, dated 2018).
Like-named read-outs stand apart in the source and are kept apart here.

Legend:
Assay type in all cases: cell-based
[1] = tested on: SKBr3 (estrogen receptor negative, Her2 over-expressing breast cancer cells); assay: Anti-proliferation assay (MTS/PMS, 72 h), SKBr3
[2] = tested on: MCF-7 (estrogen receptor positive breast cancer cells); assay: Anti-proliferation assay (MTS/PMS, 72 h), MCF-7
[3] = tested on: SKBr3 and MCF-7 cell lines; assay: Anti-proliferative activity against both breast cancer cell lines (results in words); details: SKBr3 and MCF-7, Tables 1-5
Description: (§1) Cells were maintained in a 1:1 mixture of Advanced DMEM/F12 (Gibco) supplemented with non-essential amino acids, L-glutamine (2 mM), streptomycin (500 μg/mL), penicillin (100 units/mL), and 10% FBS. Cells were grown to confluence in a humidified atmosphere (37° C., 5% CO2), seeded (2000/well, 100 μL) in 96-well plates, and allowed to attach overnight. Compound at varying concentrations in DMSO (1% DMSO final concentration) was added, and cells were returned to the incubator for 72 h. At 72 h, the number of viable cells was determined using an MTS/PMS cell proliferation kit (Promega) per the manufacturer's instructions. Cells incubated in 1% DMSO were used at 100% proliferation, and values were adjusted accordingly. IC50 values were calculated from separate experiments performed in triplicate using GraphPad Prism.
The anti-proliferative activity of these compounds is evaluated against two breast cancer cell lines, SKBr3 (estrogen receptor negative, Her2 over-expressing breast cancer cells) and MCF-7 (estrogen receptor positive breast cancer cells).

HCT-116 = assay: Anti-proliferation assay, HCT-116; details: Homo sapiens, HCT-116; Table 6, substituted phenyl ureas
Description: as §1

PC-3 = assay: Anti-proliferation assay, PC-3; details: Homo sapiens, PC-3; Table 6, substituted phenyl ureas; Prostate Cancer
Description: as §1

A-549 = assay: Anti-proliferation assay, A-549; details: Homo sapiens, A549; Table 6, substituted phenyl ureas
Description: as §1

MDA1986 = assay: Anti-proliferation assay, MDA1986; details: MDA1986; Table 6, substituted phenyl ureas; HSNCC
Description: as §1

JMAR = assay: Anti-proliferation assay, JMAR; details: JMAR; Table 6, substituted phenyl ureas; HSNCC
Description: as §1

MDAMB231 = assay: Anti-proliferation assay, MDAMB231; details: Homo sapiens, MDA-MB-231; Table 6, substituted phenyl ureas; Tri-Neg
Description: as §1

DRO81-1 = assay: Anti-proliferation assay, DRO81-1; details: Table 6, substituted phenyl ureas; Thyroid
Description: as §1

MRC5 = assay: Anti-proliferation assay, MRC5 (normal); details: Homo sapiens, MRC5, Table 6, substituted phenyl ureas
Description: as §1

HMLE = assay: Anti-proliferation assay, HMLE (normal); details: HMLE, Table 6, substituted phenyl ureas
Description: as §1

[4] = Homo sapiens, SK-BR-3, Table 6, substituted phenyl ureas, Breast Cancer, read-out: IC50 SKBr3
[5] = Homo sapiens, MCF7, Table 6, substituted phenyl ureas, Breast Cancer, read-out: IC50 MCF-3

IC50 ([1]; Table 4, alkylamino analogues, read-out: SKBr3) [µM]	IC50 ([2]; Table 4, alkylamino analogues, read-out: MCF-7) [µM]	IC50 [1, 4] [µM]	IC50 [2, 5] [µM]	IC50 (HCT-116) [µM]	IC50 (PC-3) [µM]	IC50 (A-549) [µM]	IC50 (MDAMB231) [µM]	Compound	anti-proliferative activity (in words) [3]	IC50 (MDA1986) [µM]	IC50 (JMAR) [µM]	IC50 (DRO81-1) [µM]	IC50 (MRC5) [µM]	IC50 (HMLE) [µM]
0.61 ± 0.06	1.56 ± 0.09							CC(C)=CCc1cc(C(=O)Nc2cc3ccc(OCCCNCCO)c(C)c3oc2=O)ccc1O [Compound 68o]	retains activity					
		0.64	1.78	17	2.04	1.82	2.9	Cc1c(OC2CCN(C)CC2)ccc2cc(NC(=O)Nc3ccc(Cl)c(Cl)c3)c(=O)oc12 [3,4-dichloro, 1-(3,4-dichlorophenyl)-3-(8-methyl-7-((1-methylpiperidin-4-yl)oxy)-2-oxo-2H-chromen-3-yl)urea]		2.6	6.7	13.2	2.1	1.5
		0.27	0.29	0.059	0.81	0.017	0.91	Cc1ccc(NC(=O)Nc2cc3ccc(OC4CCN(C)CC4)c(C)c3oc2=O)cc1 [p-CH3, 1-(8-methyl-7-((1-methylpiperidin-4-yl)oxy)-2-oxo-2H-chromen-3-yl)-3-(p-tolyl)urea]		3.2	3.5	16.3	6.6	3.3
		0.67	0.82	1.06	0.13	0.16	0.61	Cc1c(OC2CCN(C)CC2)ccc2cc(NC(=O)Nc3ccc(C(C)C)cc3)c(=O)oc12 [p-CH(CH3)2, 1-(4-isopropylphenyl)-3-(8-methyl-7-((1-methylpiperidin-4-yl)oxy)-2-oxo-2H-chromen-3-yl)urea]		1.11	0.88	0.3	1.9	6.4
								CC(C)=CCc1cc(C(=O)Nc2cc3ccc(OCCCN4CCN(C)CC4)c(C)c3oc2=O)ccc1O [Compound 62, 4-hydroxy-N-(8-methyl-7-(3-(4-methylpiperazin-1-yl)propoxy)-2-oxo-2H-chromen-3-yl)-3-(3-methylbut-2-en-1-yl)benzamide]	maintain activity comparable to the N-methylpiperidine derivative					
		0.4	0.7	0.24	0.15	0.18	2.2	Cc1c(OC2CCN(C)CC2)ccc2cc(NC(=O)Nc3ccc(Oc4ccccc4)cc3)c(=O)oc12 [p-phenoxyl, 1-(8-methyl-7-((1-methylpiperidin-4-yl)oxy)-2-oxo-2H-chromen-3-yl)-3-(4-phenoxyphenyl)urea]		6	5.3	1.8	11.3	> 25
								CC(C)=CCc1cc(C(=O)Nc2cc3ccc(OCCCN4CCCCC4)c(C)c3oc2=O)ccc1O [Compound 65, 4-hydroxy-N-(8-methyl-2-oxo-7-(3-(piperidin-1-yl)propoxy)-2H-chromen-3-yl)-3-(3-methylbut-2-en-1-yl)benzamide]	inactive at the highest concentrations tested					
		0.31	0.33	0.066	1.33	0.063	1.9	Cc1ccc(NC(=O)Nc2cc3ccc(OC4CCN(C)CC4)c(C)c3oc2=O)cc1C [3,4-dimethyl, 1-(3,4-dimethylphenyl)-3-(8-methyl-7-((1-methylpiperidin-4-yl)oxy)-2-oxo-2H-chromen-3-yl)urea]		1.3	1.7	8.1	2.7	0.9
		0.36	0.7	0.15	0.052	0.066	0.37	Cc1c(OC2CCN(C)CC2)ccc2cc(NC(=O)Nc3ccc(-c4ccccc4)cc3)c(=O)oc12 [p-phenyl, 1-([1,1′-biphenyl]-4-yl)-3-(8-methyl-7-((1-methylpiperidin-4-yl)oxy)-2-oxo-2H-chromen-3-yl)urea]		0.85	0.93	0.27	2	3.6
								CC(C)=CCc1cc(C(=O)Nc2cc3ccc(OCCCN4CCOCC4)c(C)c3oc2=O)ccc1O [Compound 64, 4-hydroxy-N-(8-methyl-7-(3-morpholinopropoxy)-2-oxo-2H-chromen-3-yl)-3-(3-methylbut-2-en-1-yl)benzamide]	inactive at the highest concentrations tested					
		0.65	1.04	0.24	0.18	0.11	2.6	Cc1c(OC2CCN(C)CC2)ccc2cc(NC(=O)Nc3ccc(Br)cc3)c(=O)oc12 [p-Br, 1-(4-bromophenyl)-3-(8-methyl-7-((1-methylpiperidin-4-yl)oxy)-2-oxo-2H-chromen-3-yl)urea]		3.5	3.6	3.5	5.5	6
		0.93	0.96	0.21	0.14	0.092	0.5	Cc1c(OC2CCN(C)CC2)ccc2cc(NC(=O)Nc3ccc(C(C)(C)C)cc3)c(=O)oc12 [p-C(CH3)3, 1-(4-(tert-butyl)phenyl)-3-(8-methyl-7-((1-methylpiperidin-4-yl)oxy)-2-oxo-2H-chromen-3-yl)urea]		0.57	0.49	0.71	1.8	14.5
								CC(C)=CCc1cc(C(=O)Nc2cc3ccc(OCCCN4CCCC4)c(C)c3oc2=O)ccc1O [Compound 66, 4-hydroxy-N-(8-methyl-2-oxo-7-(3-(pyrrolidin-1-yl)propoxy)-2H-chromen-3-yl)-3-(3-methylbut-2-en-1-yl)benzamide]	restores activity					
		3.87	1.53	1.24	3.82	0.84	0.91	COc1ccc(C(C)(C)C)cc1NC(=O)Nc1cc2ccc(OC3CCN(C)CC3)c(C)c2oc1=O [Compound 2-OMe-5-t-Bu, 1-(5-(tert-butyl)-2-methoxyphenyl)-3-(8-methyl-7-((1-methylpiperidin-4-yl)oxy)-2-oxo-2H-chromen-3-yl)urea]		0.09	3.8	6.1	2.65	6.1
		0.3	0.34	0.17	1.35	0.052	0.65	Cc1cc(C)cc(NC(=O)Nc2cc3ccc(OC4CCN(C)CC4)c(C)c3oc2=O)c1 [3,5-dimethyl, 1-(3,5-dimethylphenyl)-3-(8-methyl-7-((1-methylpiperidin-4-yl)oxy)-2-oxo-2H-chromen-3-yl)urea]		0.09	3.4	8.4	5.9	13.8
		0.37	0.43	0.57	0.048	0.043	0.44	Cc1c(OC2CCN(C)CC2)ccc2cc(NC(=O)Nc3ccc(C#N)cc3)c(=O)oc12 [p-CN, 1-(4-cyanophenyl)-3-(8-methyl-7-((1-methylpiperidin-4-yl)oxy)-2-oxo-2H-chromen-3-yl)urea]		1.62	3.7	0.28	5.7	4
		0.58	4.24	2.83	1.06	0.95	2.1	Cc1c(OC2CCN(C)CC2)ccc2cc(NC(=O)Nc3ccc([N+](=O)[O-])cc3)c(=O)oc12 [p-NO2, 1-(8-methyl-7-((1-methylpiperidin-4-yl)oxy)-2-oxo-2H-chromen-3-yl)-3-(4-nitrophenyl)urea]		6.6	7.3	11.5	> 25	> 25
		0.48	0.96	0.061	3.32	1.06	0.05	Cc1c(OC2CCN(C)CC2)ccc2cc(NC(=O)Nc3ccc(F)cc3)c(=O)oc12 [p-F, 1-(4-fluorophenyl)-3-(8-methyl-7-((1-methylpiperidin-4-yl)oxy)-2-oxo-2H-chromen-3-yl)urea]		0.01	8.6	19.9	> 25	> 25
